Columns and labels:
[1] = Solubility in water; type: physicochemical
[2] = Partition coefficient, log P of the compound; type: physicochemical; details: octanol/water
[3] = target: GABA-B receptor (Homo sapiens, UniProt O75899+Q9UBS5); assay: Activity at GABAB 1b/2 receptor expressed in CHO-K1 cells assessed as effect on GABA-induced [35S]GTP-gamma-S binding
GABA-B receptor, sequence (Q9UBS5 whole entry): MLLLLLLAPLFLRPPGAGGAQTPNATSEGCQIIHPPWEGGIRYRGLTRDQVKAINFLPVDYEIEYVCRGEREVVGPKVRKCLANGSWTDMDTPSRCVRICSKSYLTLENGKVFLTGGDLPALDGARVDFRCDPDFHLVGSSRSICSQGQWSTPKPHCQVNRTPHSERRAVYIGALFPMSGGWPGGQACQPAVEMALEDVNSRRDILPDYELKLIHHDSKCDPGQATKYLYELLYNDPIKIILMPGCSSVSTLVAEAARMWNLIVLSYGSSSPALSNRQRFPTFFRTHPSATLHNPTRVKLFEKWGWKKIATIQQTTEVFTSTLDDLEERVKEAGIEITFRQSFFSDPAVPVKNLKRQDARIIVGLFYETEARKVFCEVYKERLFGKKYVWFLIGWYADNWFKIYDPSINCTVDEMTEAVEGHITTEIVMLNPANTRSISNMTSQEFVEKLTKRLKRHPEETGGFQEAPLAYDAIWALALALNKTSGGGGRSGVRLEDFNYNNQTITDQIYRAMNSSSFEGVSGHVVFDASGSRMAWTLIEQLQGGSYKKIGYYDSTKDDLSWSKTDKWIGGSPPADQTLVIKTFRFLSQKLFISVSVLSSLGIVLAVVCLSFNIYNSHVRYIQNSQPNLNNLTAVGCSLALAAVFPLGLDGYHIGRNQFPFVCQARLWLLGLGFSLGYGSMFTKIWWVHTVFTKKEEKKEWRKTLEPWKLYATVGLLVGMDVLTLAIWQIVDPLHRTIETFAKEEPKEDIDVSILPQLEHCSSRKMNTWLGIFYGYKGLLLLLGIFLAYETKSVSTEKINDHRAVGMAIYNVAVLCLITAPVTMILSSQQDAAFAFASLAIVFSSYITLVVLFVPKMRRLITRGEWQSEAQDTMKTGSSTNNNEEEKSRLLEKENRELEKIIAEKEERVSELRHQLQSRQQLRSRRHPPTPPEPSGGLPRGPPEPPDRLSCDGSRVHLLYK
GABA-B receptor, sequence (O75899 whole entry): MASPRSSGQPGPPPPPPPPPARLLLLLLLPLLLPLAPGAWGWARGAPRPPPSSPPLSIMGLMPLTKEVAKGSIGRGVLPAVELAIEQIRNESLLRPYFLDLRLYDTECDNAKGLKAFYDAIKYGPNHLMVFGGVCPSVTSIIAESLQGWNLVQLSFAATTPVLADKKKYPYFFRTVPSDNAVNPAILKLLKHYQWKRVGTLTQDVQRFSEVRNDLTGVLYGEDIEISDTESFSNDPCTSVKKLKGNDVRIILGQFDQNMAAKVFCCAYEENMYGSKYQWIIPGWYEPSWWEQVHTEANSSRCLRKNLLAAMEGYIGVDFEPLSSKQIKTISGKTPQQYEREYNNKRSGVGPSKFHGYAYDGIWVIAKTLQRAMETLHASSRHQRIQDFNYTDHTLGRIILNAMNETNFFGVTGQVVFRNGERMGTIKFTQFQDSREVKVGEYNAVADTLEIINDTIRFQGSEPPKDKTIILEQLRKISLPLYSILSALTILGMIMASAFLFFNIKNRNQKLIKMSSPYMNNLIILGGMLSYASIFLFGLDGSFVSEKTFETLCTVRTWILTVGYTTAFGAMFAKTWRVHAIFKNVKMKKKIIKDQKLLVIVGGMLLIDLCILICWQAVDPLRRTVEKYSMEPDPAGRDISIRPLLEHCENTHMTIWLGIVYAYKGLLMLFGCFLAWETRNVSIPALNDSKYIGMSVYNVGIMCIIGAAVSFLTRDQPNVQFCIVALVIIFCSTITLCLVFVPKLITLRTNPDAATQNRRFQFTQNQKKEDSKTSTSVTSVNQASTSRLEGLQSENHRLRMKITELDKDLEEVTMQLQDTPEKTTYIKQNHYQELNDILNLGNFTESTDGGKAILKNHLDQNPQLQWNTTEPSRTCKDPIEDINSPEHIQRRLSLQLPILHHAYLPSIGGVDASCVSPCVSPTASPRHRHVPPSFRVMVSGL

| SMILES | solubility [1] | logP [2] | EC50 [3] |
| --- | --- | --- | --- |
| Cc1ncc(-c2ccc(C(F)(F)F)cc2)c(NC23CC4CC(CC(C4)C2)C3)n1 | < 0.01 mg/mL | > 5.9 | – |
| COc1ncc(-c2ccc(C(F)(F)F)cc2)c(N[C@@H]2C[C@@H]3CC[C@H]2C3)n1 | – | – | 2.04 µM |
| Cc1ncc(-c2ccc(C(F)(F)F)cc2)c(NC2CCCCCC2)n1 | – | – | 1.66 µM |
| Cc1ncc(-c2ccc(C(F)(F)F)cc2)c(NC2C3CC4CC(C3)CC2C4)n1 (configuration not stated) | < 0.01 mg/mL | > 5.9 | – |
| Cc1ncc(-c2ccc(OC(F)(F)F)cc2)c(NC2CCCC2)n1 | – | – | 4.57 µM |

— ChEMBL document CHEMBL1137529, “Syntheses and optimization of new GS39783 analogues as positive allosteric modulators of GABA B receptors” (Bioorg Med Chem Lett, 2007)
